Experiment [1] concerns naive CD4+ T cells cultured with allogeneic monocyte-derived dendritic cells. The experiment in a line: Mixed leukocyte reaction assay (FIG. 2). The format is cell-based, human. The conditions noted are these: 300 µM ATP; for Rescue of proliferation of naive CD4 T cells in MLR / IFNγ production in MLR: Compound 2 50 nM; for Rescue of proliferation of naive CD4 T cells in MLR: Compound 11 500 nM; for IFNγ production in MLR: Compound 11 500 nM (FIG. 2B). As to the method: FIG. 2A depicts a bar graph of percent proliferation normalized to no ATP. Naive CD4^+ T cells were cultured with allogeneic monocyte-derived dendritic cells at a ratio of 10:1 for 96 h in the presence of 300 µM ATP as a source of adenosine and the molecules Compound 2 (50 nM), Compound 11 (500 nM) or concentration-matched DMSO. Proliferation of T cells was assessed by CFSE dilution and normalized to the level observed in T cells activated in the absence of ATP.
FIG. 2B depicts two bar graphs, one showing TNF concentration (pg/mL), and the other showing IFNy (pg/mL). Experiment performed as described in FIG. 2A and supernatant sampled for analysis of cytokines by alphaLISA. **** = p < 0.0001; *** = p < 0.001; ** = p < 0.01 and * = p < 0.05; derived from one-way ANOVA with Tukey’s multiple comparisons test.
PBMCs were isolated from buffy coats via centrifugation of fresh whole blood over Lymphoprep using SepMate-50 tubes (both from […] Technologies) according to the manufacturer’s instructions. Naive CD4^+ T cells were isolated from the PBMCs using the Naive CD4^+ T cell Isolation Kit II, human (Miltenyi Biotec) according to the manufacturer’s instructions and cryopreserved in FBS with 10% DMSO until required. CD14^+ monocytes were also isolated from the PBMC samples using CD14 MicroBeads, human (MiltenyiBiotec) according to the manufacturer’s instructions and used on the day of isolation.
Monocytes were resuspended in RPMI (Lonza) with 10% FBS and cultured in a humidified incubator at 37° C. with 5% CO2 for 6 days in the presence of GM-CSF and IL-4 (R&D Systems), each at 50 ng/ml in 24 well plates. On day 3 of culture half of the medium was carefully removed and replaced with fresh medium containing 100 ng/ml of GM-CSF and IL-4.
On day 6 of culture monocyte-derived dendritic cells (MoDCs) were harvested and washed into X-VIVO15 medium containing 5% human male AB serum (Biowest) and 1 mM sodium pyruvate (Lonza). Naive CD4^+ T cells from a different donor were thawed and CFSE-labelled as described above and washed into the same medium as the MoDCs. Finally, 1 × 10^4 MoDCs were cultured with 1 × 10^5 naive CD4^+ T cells in the presence of ATP (Sigma-Aldrich), uridine or uracil in 96 round well bottom plates for 72 h in a humidified incubator at 37° C. with 5% CO2.
Analysis of proliferation of CD4 T cells via CSFE dilution was performed by flow cytometry using a BD LSR Fortessa with data analysis on FlowJo (BD Biosciences). Cytokines were analysed by alphaLISA (Perkin Elmer) according to the manufacturer’s instructions.

For experiment [2], the system named is CMV peptide-specific CD8+ T cells. Kind of experiment: CMV antigen recall assay (FIG. 3). The format is cell-based, human. The conditions noted are these: ATP 300 µM, 7 days, with IL-2, IL-7, nivolumab. As to the method:
FIG. 3 depicts a bar graph of percent tetramer. PBMCs from a healthy volunteer donor with previous history of CMV infection and known HLA-A*02 subtype were cultured for 7 days with a peptide ([…]) derived from the immunodominant CMV antigen pp65 alongside IL-2, IL-7 and the anti-PD1 antibody nivolumab. ATP was added to the cultures as a source of adenosine, alongside the ENT1 inhibitor molecules as indicated. Expansion of the peptide-specific CD8^+ T cell population was monitored via flow cytometry using […]-MHC-I tetramers linked with BV421. ** = p < 0.01; * = p < 0.05; derived from one-way ANOVA with Tukey’s multiple comparisons test from technical replicates in a single experiment.
Frozen vials of PBMCs from a healthy volunteer donor with history of CMV infection and known HLA-A*02 subtype were purchased from ImmuneXperts. Cells were thawed and washed into X-VIVO15 medium containing 5% human serum and 1 mM sodium pyruvate and plated in 96 U bottom plates (1 × 10^6 cells per well). […] On day 7 of culture the cells were harvested and the frequency of CMV-peptide specific CD8^+ T cells was assessed via flow cytometry using […]-MHC-I tetramers (Tetramer Shop) by quantifying the frequency of tetramer^+ cells within the viable CD8^+ T cell gate.

The target of another experiment is T1, hERG ion channel (Homo sapiens, UniProt Q12809).
T1 construct: Chinese Hamster Ovary cell lines stably expressing the full-length ion channel; expressed in transfected cells
T1 sequence (Q12809 whole entry): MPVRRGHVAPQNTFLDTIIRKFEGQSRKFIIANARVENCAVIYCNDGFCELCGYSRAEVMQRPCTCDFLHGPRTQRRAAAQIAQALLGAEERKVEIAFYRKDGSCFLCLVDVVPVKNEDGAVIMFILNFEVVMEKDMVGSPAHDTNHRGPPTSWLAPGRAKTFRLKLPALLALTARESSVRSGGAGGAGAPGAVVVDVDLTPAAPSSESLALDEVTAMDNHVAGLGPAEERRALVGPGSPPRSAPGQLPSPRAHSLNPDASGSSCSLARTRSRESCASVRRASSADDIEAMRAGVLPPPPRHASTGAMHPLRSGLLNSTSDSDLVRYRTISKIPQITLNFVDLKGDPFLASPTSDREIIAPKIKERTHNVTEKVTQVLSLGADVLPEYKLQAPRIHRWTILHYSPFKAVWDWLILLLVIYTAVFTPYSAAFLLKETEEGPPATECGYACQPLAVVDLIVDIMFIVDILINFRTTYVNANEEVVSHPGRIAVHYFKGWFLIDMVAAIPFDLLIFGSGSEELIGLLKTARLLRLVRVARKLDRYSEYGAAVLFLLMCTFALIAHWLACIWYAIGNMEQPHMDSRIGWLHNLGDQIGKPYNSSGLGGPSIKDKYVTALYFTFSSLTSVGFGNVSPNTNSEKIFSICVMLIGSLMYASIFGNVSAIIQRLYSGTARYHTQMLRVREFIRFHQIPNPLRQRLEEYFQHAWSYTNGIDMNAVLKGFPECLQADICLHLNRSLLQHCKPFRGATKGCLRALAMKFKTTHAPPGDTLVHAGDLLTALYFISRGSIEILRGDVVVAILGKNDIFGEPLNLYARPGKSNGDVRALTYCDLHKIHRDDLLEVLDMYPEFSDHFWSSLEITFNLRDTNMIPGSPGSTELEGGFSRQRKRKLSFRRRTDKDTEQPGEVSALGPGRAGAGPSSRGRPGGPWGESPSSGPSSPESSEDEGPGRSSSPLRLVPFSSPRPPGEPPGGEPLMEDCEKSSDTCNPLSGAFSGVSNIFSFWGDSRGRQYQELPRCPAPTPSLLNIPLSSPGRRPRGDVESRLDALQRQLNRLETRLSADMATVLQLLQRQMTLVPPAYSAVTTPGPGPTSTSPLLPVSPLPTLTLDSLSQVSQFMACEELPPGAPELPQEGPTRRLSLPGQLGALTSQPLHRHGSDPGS
The experiment in a line: hERG ion channel inhibition (Patchliner automated patch-clamp, CHO cells). The format is cell-based. The conditions noted are these: whole-cell, room temperature, 6-point curve up to 100 µM. As to the method: The compounds were tested for inhibition of hERG ion channel. 6-Point concentration-response curves were generated on the Patchliner automated patch-clamp using serial dilutions from a maximum test concentration of 100 µM.
Compounds were solubilised to 33 mM in DMSO before dilution in HBPS to 100 µM. 6-Point concentration-response curves were generated using serial dilutions from the top test concentration. Electrophysiological recordings were made from a Chinese Hamster Ovary cell lines stably expressing the full-length ion channel. Single cell ionic currents were measured in whole-cell configuration at room temperature (21-23° C.) using a Patchliner (Nanion Technologies). The internal solution for hERG contained (mM): 120 KF, 20 KCl, 10 EGTA, 10 HEPES and was buffered to pH 7.3. The external solution (HEPES-buffered saline, HBPS) contained (mM): 138 NaCl, 4.5 KCl, 1.8 CaC12, 1.0 MgC12, 10 HEPES, 10 glucose, buffered to pH7.4. Cells were clamped at a holding potential of -80 mV before a depolarising step appropriate for the hERG channel. Currents were measured from the step and referenced to the holding current. Compounds were incubated for 90 seconds. Concentration-response curves were generated by cumulative addition of compound with concentrations low to high. In all cases, steady-state inhibition was achieved before the next concentration of compound was added.
IC50 values were obtained from a 4-parameter logistic fit of the concentration-response data: […]
Background: Block of hERG is tested as a sign of cardiac risk.

Molecules are shown by their SMILES.

As a reminder, the IC50 is the midpoint of a concentration-inhibition curve. High values mean weaker potency, low ones greater potency. Consider `COc1cc(C(=O)O[C@H]2CCCOc3cc(cc(OC)c3OC)C(=O)OCCCN3CCCN(CC2)CC3)cc(OC)c1OC` [Compound 2, (12S)-74,75-dimethoxy-6-oxo-5,8-dioxa-1(1,4)-diazepana-7(1,3)-benzenacyclotetradecaphane-12-yl 3,4,5-trimethoxybenzoate], for which the “Production of TNF in MLR” value in experiment [1] (Compound 2 50 nM (FIG. 2B)) was “clear restoration with Compound 2, even beyond the control level”. Also, in experiment [1], the “Rescue of proliferation of naive CD4 T cells in MLR” value was “near complete rescue”; the “IFNγ production in MLR” value is “significant and consistent increase”. Moreover, the “Rescue of proliferation of CMV peptide-specific CD8+ T cells” value in experiment [2] is listed as “significant rescue of proliferation”. The molecule further showed an IC50 against hERG ion channel of 2500 nM.
For the molecule `COc1cc(C(=O)OC2CCCOc3cc(cc(OC)c3OC)C(=O)N(C)CCCN3CCCN(CC2)CC3)cc(OC)c1OC` (centres unmarked) [Compound 11, 74,75-dimethoxy-5-methyl-6-oxo-8-oxa-5-aza-1(1,4)-diazepana-7(1,3)-benzenacyclotetradecaphane-12-yl 3,4,5-trimethoxybenzoate], in experiment [1], the “Rescue of proliferation of naive CD4 T cells in MLR” value is “weaker restoration” and the “IFNγ production in MLR” value is given as “smaller effect”. Moreover, the “Rescue of proliferation of CMV peptide-specific CD8+ T cells” value in experiment [2] is “significant rescue of proliferation”.

These data come from patent publication US20230203058A1, “MACROCYCLIC DIAMINE DERIVATIVES AS ENT INHIBITORS FOR THE TREATMENT OF CANCERS, AND COMBINATION THEREOF WITH ADENOSINE RECEPTOR ANTAGONISTS” (ITEOS BELGIUM SA, priority 2020, published 2023).
